{"source": "patent US10207982B2", "about": "“Solid forms of desvenlafaxine” (ALPARIS, S.A. DE C.V., priority 2016, dated 2019)", "key": {"[1]": {"assay": "Intrinsic dissolution of the crystalline NSF DSV:3,4-DHB", "format": "physicochemical", "description": "Dissolution profiles were assessed for the crystalline NSF of DSV:3,4-DHB. The rate constant values are grouped in Table 6."}, "[2]": {"assay": "Comparative dissolution profiles of five solid phases", "format": "physicochemical", "set-up": "Dissolution rate constant k: unit not given here", "conditions": "for Dissolution rate constant k: 37° C., 50 rpm; for Dissolution rate relative to the other shown phases: pH 1.2, 4.5 and 6.8", "description": "FIG. 14. Dissolution profile in HCl solution (pH 1.2, 37° C., 50 rpm, n=3, ±SD) of the new crystalline solid phase of desvenlafaxine-3,4-dihydroxybenzoic acid (crystalline DSV:3,4-DHB), and comparison with the new amorphous solid phase of desvenlafaxine-3,4-dihydroxybenzoic acid (amorphous DSV:3,4-DHB), the new crystalline solid phase of desvenlafaxine-2,4-dihydroxybenzoic acid (crystalline DSV:2,4-DHB), desvenlafaxine (DSV), and desvenlafaxine succinate (DSV succinate). FIG. 15. Dissolution profile in acetate buffer (pH 4.5, 37° C., 50 rpm, n=3, ±SD) of the new crystalline solid phase of desvenlafaxine-3,4-dihidroxibenzoic acid (crystalline DSV:3,4-DHB), and comparison with the new amorphous solid phase of desvenlafaxine-3,4-dihydroxybenzoic acid (amorphous DSV:3,4-DHB), the new crystalline solid phase of desvenlafaxine-2,4-dihydroxybenzoic acid (crystalline DSV:2,4-DHB), desvenlafaxine (DSV), and desvenlafaxine succinate (DSV succinate). FIG. 16. Dissolution profile in phosphate buffer (pH 6.8, 37° C., 50 rpm, n=3, ±SD) of the new crystalline solid phase of desvenlafaxine-3,4-dihydroxybenzoic acid (crystalline DSV:3,4-DHB), and comparison with the new amorphous solid phase of desvenlafaxine-3,4-dihydroxybenzoic acid (amorphous DSV:3,4-DHB), the new crystalline solid phase of desvenlafaxine-2,4-dihydroxybenzoic acid (crystalline DSV:2,4-DHB), desvenlafaxine (DSV), and desvenlafaxine succinate (DSV succinate). A comparative test was carried out for the dissolution profiles at pH 1.2, 4.5 and 6.8 for the new crystalline phase DSV:3,4-DHB with respect to the amorphous NSF with the same co-former, the crystalline NSF with 2,4-dihydroxybenzoic acid, as well as desvenlafaxine base and the commercial salt (desvenlafaxine succinate)."}, "[3]": {"assay": "Thermogravimetric analysis (TGA/DSC) of crystalline NSF", "format": "physicochemical", "description": "The compound was observed as stable until 190° C., the temperature at which decomposition starts to occur.\nThe crystalline NSF of DSV:2,4-DHB was also characterized by X-ray powder diffraction (see FIG. 10), as well as thermogravimetric analysis (TGA/DSC) (see FIG. 11)."}, "[4]": {"assay": "Dissolution rate test in Wood apparatus, amorphous NSF", "format": "physicochemical", "conditions": "for Dissolution Rate Constants: 150 mg tablets, 37° C., 50 rpm; for Difference in dissolution rate between dissolution media: pH 1.2 versus pH 6.8; for Dissolution rate as compared to the neutral DSV: FIGS. 4A-4I, different pH values", "description": "The dissolution rate tests were performed in aqueous media, in a Wood apparatus with 150 mg tablets at 37° C. and 50 rpm in different dissolution media, as shown in Tables 2 and 3."}, "[5]": {"format": "physicochemical", "from_the_text": "Solubility tests could not be determined because the amorphous NSF obtained are very soluble and a large amount is required to saturate the solution."}, "[6]": {"assay": "Indicative physical stability test (X-ray powder diffraction)", "format": "physicochemical", "conditions": "40° C., 75% humidity, 30 days", "description": "The amorphous NSF obtained from DSV:3-HB, DSV:3,4-DHB and DSV:3,4,5-THB were subjected to physical stability tests, wherein the NSF were subjected to temperatures of 45 and 50° C. in dry conditions (no humidity), and to 40° C., 75% humidity for 30 days."}}}
{"smiles": "CN(C)CC(c1ccc(O)cc1)C1(O)CCCCC1.O=C(O)c1ccc(O)c(O)c1", "note": "(centres unmarked) [Crystalline DSV:3,4-DHB, 3,4-dihydroxybenzoate salt of anhydrous desvenlafaxine]", "values": [{"measurement": "Intrinsic dissolution rate constant k", "setting": "[1]; pH 1.2", "value": 2.48, "unit": "mg/cm2 · min"}, {"measurement": "Intrinsic dissolution rate constant k", "setting": "[1]; pH 4.5", "value": 2.19, "unit": "mg/cm2 · min"}, {"measurement": "Intrinsic dissolution rate constant k", "setting": "[1]; pH 6.8", "value": 1.43, "unit": "mg/cm2 · min"}, {"measurement": "Quotient (kNSF/kDSV)", "setting": "[2]; pH 1.2", "value": 1.8}, {"measurement": "Dissolution rate constant k", "setting": "[2]; pH 1.2, HCl solution", "value": 2.47}, {"measurement": "Quotient (kNSF/kDSV)", "setting": "[2]; pH 4.5", "value": 5.9}, {"measurement": "Dissolution rate constant k", "setting": "[2]; pH 4.5, acetate buffer", "value": 2.19}, {"measurement": "Quotient (kNSF/kDSV)", "setting": "[2]; pH 6.8", "value": 4.8}, {"measurement": "Dissolution rate constant k", "setting": "[2]; pH 6.8, phosphate buffer", "value": 1.54}, {"measurement": "Stable until, temperature at which decomposition starts", "setting": "[3]", "value": 190, "unit": "°C"}]}
{"smiles": "CN(C)CC(c1ccc(O)cc1)C1(O)CCCCC1.O=C(O)c1cccc(O)c1", "note": "(centres unmarked) [DSV:3-HB, desvenlafaxine-3-hydroxybenzoic acid]", "values": [{"measurement": "Dissolution Rate Constants", "setting": "[4]; pH 1.2", "value": 5.8, "unit": "mg/cm^2 · min"}, {"measurement": "Dissolution Rate Constants", "setting": "[4]; pH 4.5", "value": 6.1, "unit": "mg/cm^2 · min"}, {"measurement": "Dissolution Rate Constants", "setting": "[4]; pH 6.8", "value": 5.4, "unit": "mg/cm^2 · min"}, {"measurement": "Dissolution Rate Constants", "setting": "[4]; water", "value": 3.8, "unit": "mg/cm^2 · min"}]}
{"smiles": "CN(C)CC(c1ccc(O)cc1)C1(O)CCCCC1", "note": "(centres unmarked) [DSV-Succinate, desvenlafaxine succinate, reference compound]", "values": [{"measurement": "Quotient (kNSF/kDSV)", "setting": "[2]; pH 1.2", "value": 2.1}, {"measurement": "Quotient (kNSF/kDSV)", "setting": "[2]; pH 4.5", "value": 6.9}, {"measurement": "Quotient (kNSF/kDSV)", "setting": "[2]; pH 6.8", "value": 10.0}]}
{"smiles": "CN(C)CC(c1ccc(O)cc1)C1(O)CCCCC1", "note": "(racemic) [DSV, (±)-1-[2-(dimethylamino)-1-(4-hydroxyphenyl)ethyl]cyclohexanol, reference compound]", "values": [{"measurement": "Dissolution Rate Constants", "setting": "[4]; pH 1.2", "value": 6.9, "unit": "mg/cm^2 · min"}, {"measurement": "Difference in dissolution rate between dissolution media", "setting": "[4]", "value": 14, "unit": "times higher"}, {"measurement": "Dissolution Rate Constants", "setting": "[4]; pH 4.5", "value": 1.2, "unit": "mg/cm^2 · min"}, {"measurement": "Dissolution Rate Constants", "setting": "[4]; pH 6.8", "value": 0.5, "unit": "mg/cm^2 · min"}, {"measurement": "Dissolution Rate Constants", "setting": "[4]; water", "value": 0.0, "unit": "mg/cm^2 · min"}]}
{"smiles": "CN(C)CC(c1ccc(O)cc1)C1(O)CCCCC1.O=C(O)c1ccc(O)cc1O", "note": "(centres unmarked) [Crystalline DSV:2,4-DHB, desvenlafaxine-2,4-dihydroxybenzoic acid]", "values": [{"measurement": "Quotient (kNSF/kDSV)", "setting": "[2]; pH 1.2", "value": 0.79}, {"measurement": "Dissolution rate relative to the other shown phases", "setting": "[2]", "value": "lower dissolution rate than the commercial salt (succinate) and any of the other shown phases"}, {"measurement": "Dissolution rate constant k", "setting": "[2]; pH 1.2, HCl solution", "value": 1.07}, {"measurement": "Quotient (kNSF/kDSV)", "setting": "[2]; pH 4.5", "value": 0.94}, {"measurement": "Dissolution rate constant k", "setting": "[2]; pH 4.5, acetate buffer", "value": 0.35}, {"measurement": "Quotient (kNSF/kDSV)", "setting": "[2]; pH 6.8", "value": 0.71}, {"measurement": "Dissolution rate constant k", "setting": "[2]; pH 6.8, phosphate buffer", "value": 0.23}, {"measurement": "Stable until, temperature at which decomposition starts", "setting": "[3]", "value": "about 150 °C"}]}
{"smiles": "CN(C)CC(c1ccc(O)cc1)C1(O)CCCCC1.O=C(O)c1cc(O)c(O)c(O)c1", "note": "(centres unmarked) [DSV:3,4,5-THB, desvenlafaxine-3,4,5-trihydroxybenzoic acid]", "values": [{"measurement": "Solubility", "setting": "[5]", "value": "the solution did not become saturated"}, {"measurement": "Dissolution rate as compared to the neutral DSV", "setting": "[4]", "value": "higher dissolution rate"}, {"measurement": "Dissolution Rate Constants", "setting": "[4]; pH 1.2", "value": 5.4, "unit": "mg/cm^2 · min"}, {"measurement": "Dissolution Rate Constants", "setting": "[4]; pH 4.5", "value": 6.1, "unit": "mg/cm^2 · min"}, {"measurement": "Dissolution Rate Constants", "setting": "[4]; pH 6.8", "value": 9.0, "unit": "mg/cm^2 · min"}, {"measurement": "Dissolution Rate Constants", "setting": "[4]; water", "value": 1.6, "unit": "mg/cm^2 · min"}]}
{"smiles": "CN(C)CC(c1ccc(O)cc1)C1(O)CCCCC1.O=C(O)c1ccc(O)c(O)c1", "note": "(centres unmarked) [Amorphous DSV:3,4-DHB, desvenlafaxine-3,4-dihydroxybenzoic acid]", "values": [{"measurement": "Physical stability", "setting": "[6]", "value": "only possible to characterize"}, {"measurement": "Quotient (kNSF/kDSV)", "setting": "[2]; pH 1.2", "value": 5.0}, {"measurement": "Dissolution rate relative to the other shown phases", "setting": "[2]", "value": "the higher dissolution rate"}, {"measurement": "Dissolution rate constant k", "setting": "[2]; pH 1.2, HCl solution", "value": 6.69}, {"measurement": "Quotient (kNSF/kDSV)", "setting": "[2]; pH 4.5", "value": 18.4}, {"measurement": "Dissolution rate constant k", "setting": "[2]; pH 4.5, acetate buffer", "value": 6.81}, {"measurement": "Quotient (kNSF/kDSV)", "setting": "[2]; pH 6.8", "value": 17.0}, {"measurement": "Dissolution rate constant k", "setting": "[2]; pH 6.8, phosphate buffer", "value": 5.45}, {"measurement": "Dissolution rate as compared to the neutral DSV", "setting": "[4]", "value": "higher dissolution rate"}, {"measurement": "Dissolution Rate Constants", "setting": "[4]; pH 1.2", "value": 4.4, "unit": "mg/cm^2 · min"}, {"measurement": "Difference in dissolution rate between dissolution media", "setting": "[4]", "value": "lower or almost null difference"}, {"measurement": "Dissolution Rate Constants", "setting": "[4]; pH 4.5", "value": 5.0, "unit": "mg/cm^2 · min"}, {"measurement": "Dissolution Rate Constants", "setting": "[4]; pH 6.8", "value": 5.7, "unit": "mg/cm^2 · min"}, {"measurement": "Dissolution Rate Constants", "setting": "[4]; water", "value": 2.3, "unit": "mg/cm^2 · min"}]}
